The NIST ThermoML archive (doi:10.1016/j.jct.2016.10.031)

Experiment: molar heat capacity at constant pressure
Details: 101.33 kPa, Small (less than 1 g) adiabatic calorimetry

CC(C)(C)c1ccc(Oc2ccc([N+](=O)[O-])cc2)cc1 [1-(tert-butyl)-4-(4-nitrophenoxy)benzene]
Details	molar heat capacity at constant pressure [J/K/mol]
5 K, Crystal	1.355
7.47 K, Crystal	4.099
7.73 K, Crystal	4.357
7.99 K, Crystal	4.806
8.25 K, Crystal	4.93
8.5 K, Crystal	5.379
8.76 K, Crystal	5.679
9 K, Crystal	6.111
9.25 K, Crystal	6.543
9.5 K, Crystal	6.718
9.74 K, Crystal	6.934
9.98 K, Crystal	7.616
10 K, Crystal	7.483
10.29 K, Crystal	7.94
10.67 K, Crystal	8.647
11.05 K, Crystal	9.237
11.43 K, Crystal	9.903
11.82 K, Crystal	10.72
12.19 K, Crystal	11.55
12.56 K, Crystal	12.15
12.94 K, Crystal	12.7
13.31 K, Crystal	13.57
13.67 K, Crystal	14.33
14.04 K, Crystal	15.21
14.41 K, Crystal	15.49
14.78 K, Crystal	16.59
15 K, Crystal	16.88
15.14 K, Crystal	17.38
15.51 K, Crystal	17.73
15.87 K, Crystal	18.62
16.23 K, Crystal	19.3
16.59 K, Crystal	20.01
16.95 K, Crystal	20.59
17.31 K, Crystal	21.22
17.67 K, Crystal	21.96
18.02 K, Crystal	23.17
18.38 K, Crystal	23.47
18.74 K, Crystal	23.92
19.09 K, Crystal	24.86
19.44 K, Crystal	25.53
19.8 K, Crystal	26.14
20 K, Crystal	26.69
20.15 K, Crystal	27.16
20.82 K, Crystal	28.34
21.6 K, Crystal	29.77
22.37 K, Crystal	31.32
23.15 K, Crystal	32.68
23.93 K, Crystal	34.2
24.7 K, Crystal	35.79
25 K, Crystal	36.33
25.47 K, Crystal	37.61
26.25 K, Crystal	38.45
27.02 K, Crystal	40.22
27.78 K, Crystal	41.32
28.55 K, Crystal	43.04
29.31 K, Crystal	44.42
30 K, Crystal	45.73
30.07 K, Crystal	45.76
30.84 K, Crystal	47.58
31.6 K, Crystal	48.75
32.37 K, Crystal	49.72
33.14 K, Crystal	51.08
33.9 K, Crystal	52.67
34.66 K, Crystal	54.05
35 K, Crystal	54.54
35.42 K, Crystal	55.3
36.18 K, Crystal	57.11
36.94 K, Crystal	57.85
37.7 K, Crystal	58.97
38.45 K, Crystal	60.6
39.21 K, Crystal	61.49
39.97 K, Crystal	62.88
40 K, Crystal	63.11
40.73 K, Crystal	64.39
41.49 K, Crystal	65.82
42.25 K, Crystal	66.47
43.01 K, Crystal	68.18
43.76 K, Crystal	69.21
44.52 K, Crystal	70.63
45 K, Crystal	71.17
45.29 K, Crystal	71.91
46.05 K, Crystal	72.64
46.81 K, Crystal	73.61
47.56 K, Crystal	75.02
48.32 K, Crystal	75.74
49.08 K, Crystal	77.04
49.84 K, Crystal	77.52
50 K, Crystal	77.91
50.59 K, Crystal	79.05
51.35 K, Crystal	79.22
52.11 K, Crystal	79.8
52.86 K, Crystal	81.65
53.62 K, Crystal	82.43
54.38 K, Crystal	83.39
55.13 K, Crystal	84.31
55.89 K, Crystal	84.81
56.64 K, Crystal	85.14
57.4 K, Crystal	86.3
58.15 K, Crystal	87.8
58.9 K, Crystal	88.13
59.65 K, Crystal	89.46
60 K, Crystal	89.55
60.41 K, Crystal	89.8
61.16 K, Crystal	91.13
61.91 K, Crystal	92.37
62.66 K, Crystal	92.46
63.41 K, Crystal	94.04
64.16 K, Crystal	94.87
64.91 K, Crystal	94.78
65.66 K, Crystal	96.12
66.41 K, Crystal	96.12
67.16 K, Crystal	97.94
67.91 K, Crystal	97.94
68.65 K, Crystal	99.44
69.4 K, Crystal	100.27
70 K, Crystal	101.19
70.15 K, Crystal	102.77
71.05 K, Crystal	102.93
72.11 K, Crystal	103.85
73.17 K, Crystal	104.93
74.23 K, Crystal	106.18
75.29 K, Crystal	108.42
76.35 K, Crystal	108.75
77.41 K, Crystal	110.08
78.47 K, Crystal	112
79.3 K, Crystal	112.16
79.53 K, Crystal	113.49
79.87 K, Glass	115.9
80 K, Crystal	113.16
80.1 K, Crystal	112.83
80.58 K, Crystal	114.66
80.67 K, Glass	116.65
80.9 K, Crystal	113.82
81.47 K, Glass	117.4
81.64 K, Crystal	116.15
81.71 K, Crystal	114.66
82.27 K, Glass	118.31
82.51 K, Crystal	115.4
82.7 K, Crystal	116.82
83.08 K, Glass	119.23
83.31 K, Crystal	116.49
83.75 K, Crystal	117.48
83.88 K, Glass	120.06
84.11 K, Crystal	117.32
84.68 K, Glass	120.98
84.92 K, Crystal	118.07
85.48 K, Glass	121.97
85.72 K, Crystal	119.06
86.29 K, Glass	122.89
86.52 K, Crystal	119.98
87.09 K, Glass	123.8
87.32 K, Crystal	120.81
87.89 K, Glass	124.55
